From PubChem BioAssay (NCI)
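Five concentrations, 48 hours, 96-well plates. The concentration for 50% growth inhibition is given as GI50. TGI denotes the concentration required for complete inhibition of growth.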

Legend:
Experiment in all cases: NCI-60 cell line screen, 48 h
HCT-15 colon = tested on: HCT-15 colon
SNB-19 CNS = tested on: SNB-19 CNS
UACC-62 melanoma = tested on: UACC-62 melanoma
SF-295 CNS = tested on: SF-295 CNS
IGROV1 ovarian = tested on: IGROV1 ovarian
HCC-2998 colon = tested on: HCC-2998 colon
SNB-75 CNS = tested on: SNB-75 CNS
NCI-H522 lung = tested on: NCI-H522 lung
OVCAR-8 ovarian = tested on: OVCAR-8 ovarian
OVCAR-4 ovarian = tested on: OVCAR-4 ovarian
U251 CNS = tested on: U251 CNS
NCI-H23 lung = tested on: NCI-H23 lung
HOP-92 NSCLC = tested on: HOP-92 NSCLC
SK-OV-3 ovarian = tested on: SK-OV-3 ovarian
MDA-MB-231 breast = tested on: MDA-MB-231 breast
HS 578T breast = tested on: HS 578T breast
SN12C renal = tested on: SN12C renal
LOX IMVI melanoma = tested on: LOX IMVI melanoma
SK-MEL-2 melanoma = tested on: SK-MEL-2 melanoma
OVCAR-5 ovarian = tested on: OVCAR-5 ovarian
786-0 renal = tested on: 786-0 renal
TK-10 renal = tested on: TK-10 renal
CAKI-1 renal = tested on: CAKI-1 renal
NCI-H226 lung = tested on: NCI-H226 lung
SK-MEL-28 melanoma = tested on: SK-MEL-28 melanoma
UO-31 renal = tested on: UO-31 renal
ACHN renal = tested on: ACHN renal
PC-3 prostate = tested on: PC-3 prostate
MDA-MB-435 = tested on: MDA-MB-435
T-47D breast = tested on: T-47D breast
NCI/ADR-RES ovarian = tested on: NCI/ADR-RES ovarian
SW-620 colon = tested on: SW-620 colon
SR leukemia = tested on: SR leukemia
RXF 393 renal = tested on: RXF 393 renal
HL-60(TB) leukemia = tested on: HL-60(TB) leukemia
HOP-62 NSCLC = tested on: HOP-62 NSCLC
CCRF-CEM leukemia = tested on: CCRF-CEM leukemia
OVCAR-3 ovarian = tested on: OVCAR-3 ovarian
A498 renal = tested on: A498 renal
SF-539 CNS = tested on: SF-539 CNS
COLO 205 colon = tested on: COLO 205 colon
UACC-257 melanoma = tested on: UACC-257 melanoma
BT-549 breast = tested on: BT-549 breast
MALME-3M melanoma = tested on: MALME-3M melanoma
M14 melanoma = tested on: M14 melanoma
KM12 colon = tested on: KM12 colon
NCI-H460 lung = tested on: NCI-H460 lung
SF-268 CNS = tested on: SF-268 CNS
RPMI-8226 leukemia = tested on: RPMI-8226 leukemia
MCF7 breast = tested on: MCF7 breast
EKVX NSCLC = tested on: EKVX NSCLC
K-562 leukemia = tested on: K-562 leukemia
MOLT-4 leukemia = tested on: MOLT-4 leukemia
HCT-116 colon = tested on: HCT-116 colon
DU-145 prostate = tested on: DU-145 prostate
A549 NSCLC = tested on: A549 NSCLC
SK-MEL-5 melanoma = tested on: SK-MEL-5 melanoma
HT29 colon = tested on: HT29 colon
MDA-N = tested on: MDA-N

## Cc1ccc2nc3ccccc3c(NCc3ccc(Cl)cc3)c2c1
HCT-15 colon
  GI50: 2.52 µM
  TGI: 8.73 µM
SNB-19 CNS
  GI50: 6.21 µM
  TGI: 12.7 µM
UACC-62 melanoma
  GI50: 6.89 µM
  TGI: 14 µM
SF-295 CNS
  GI50: 5.65 µM
  TGI: 11.7 µM
IGROV1 ovarian
  GI50: 2.95 µM
  TGI: 10.2 µM
HCC-2998 colon
  GI50: 1.02 µM
  TGI: 2.02 µM
SNB-75 CNS
  GI50: 6.77 µM
  TGI: 13.3 µM
NCI-H522 lung
  GI50: 5.85 µM
  TGI: 14.6 µM
OVCAR-8 ovarian
  GI50: 5.77 µM
  TGI: 16.6 µM
OVCAR-4 ovarian
  GI50: 5.13 µM
  TGI: 11.9 µM
U251 CNS
  GI50: 3.85 µM
  TGI: 11.6 µM
NCI-H23 lung
  GI50: 5.55 µM
  TGI: 12 µM
HOP-92 NSCLC
  GI50: 1.38 µM
  TGI: 5.79 µM
SK-OV-3 ovarian
  GI50: 7.7 µM
  TGI: 15.8 µM
MDA-MB-231 breast
  GI50: 5.16 µM
  TGI: 12.2 µM
HS 578T breast
  GI50: 7.88 µM
  TGI: 20.2 µM
SN12C renal
  GI50: 5.09 µM
  TGI: 12 µM
LOX IMVI melanoma
  GI50: 2.07 µM
  TGI: 7.46 µM
SK-MEL-2 melanoma
  GI50: 8.57 µM
  TGI: 17.3 µM
OVCAR-5 ovarian
  GI50: 4.67 µM
  TGI: 11.1 µM
786-0 renal
  GI50: 5.53 µM
  TGI: 12.1 µM
TK-10 renal
  GI50: 8.94 µM
  TGI: 16.7 µM
CAKI-1 renal
  GI50: 4.89 µM
  TGI: 11 µM
NCI-H226 lung
  GI50: 6.77 µM
  TGI: 17 µM
SK-MEL-28 melanoma
  GI50: 6.42 µM
  TGI: 13.1 µM
UO-31 renal
  GI50: 1.53 µM
  TGI: 8.25 µM
ACHN renal
  GI50: 5.44 µM
  TGI: 11.9 µM
PC-3 prostate
  GI50: 2.19 µM
  TGI: 8.9 µM
MDA-MB-435
  GI50: 6.49 µM
  TGI: 12.9 µM
T-47D breast
  GI50: 7.03 µM
  TGI: 19.5 µM
NCI/ADR-RES ovarian
  GI50: 4.72 µM
  TGI: 12.4 µM
SW-620 colon
  GI50: 2.83 µM
  TGI: 9.42 µM
SR leukemia
  GI50: 1.48 µM
  TGI: 3.84 µM
RXF 393 renal
  GI50: 1.98 µM
  TGI: 8.08 µM
HL-60(TB) leukemia
  GI50: 5.28 µM
  TGI: 13.5 µM
HOP-62 NSCLC
  GI50: 6.89 µM
  TGI: 16.3 µM
CCRF-CEM leukemia
  GI50: 2.02 µM
  TGI: 8.95 µM
OVCAR-3 ovarian
  GI50: 6.31 µM
  TGI: 13 µM
A498 renal
  GI50: 5.61 µM
  TGI: 11.9 µM
SF-539 CNS
  GI50: 5.55 µM
  TGI: 12.1 µM
COLO 205 colon
  GI50: 1.27 µM
  TGI: 3.39 µM
UACC-257 melanoma
  GI50: 8.57 µM
  TGI: 16.2 µM
BT-549 breast
  GI50: 6.38 µM
  TGI: 13.3 µM
MALME-3M melanoma
  GI50: 5.85 µM
  TGI: 12.5 µM
M14 melanoma
  GI50: 6.75 µM
  TGI: 13.6 µM
KM12 colon
  GI50: 6.5 µM
  TGI: 13.5 µM
NCI-H460 lung
  GI50: 4.02 µM
  TGI: 11.1 µM
SF-268 CNS
  GI50: 6.91 µM
  TGI: 14.2 µM
RPMI-8226 leukemia
  GI50: 1.44 µM
  TGI: 4.1 µM
MCF7 breast
  GI50: 1.94 µM
  TGI: 8.82 µM
EKVX NSCLC
  GI50: 6.45 µM
  TGI: 13 µM
K-562 leukemia
  GI50: 1.51 µM
  TGI: 5.28 µM
MOLT-4 leukemia
  GI50: 1.59 µM
  TGI: 5.5 µM
HCT-116 colon
  GI50: 2.15 µM
  TGI: 8.27 µM
DU-145 prostate
  GI50: 5.44 µM
  TGI: 11.5 µM
A549 NSCLC
  GI50: 3.93 µM
  TGI: 12.7 µM
SK-MEL-5 melanoma
  GI50: 6 µM
  TGI: 12.3 µM
HT29 colon
  GI50: 1.8 µM
  TGI: 7.73 µM

## CNc1nnc(CCCCCCCCc2nnc(NC)o2)o1
HCT-15 colon
  TGI: > 100 µM
SNB-19 CNS
  TGI: > 100 µM
SF-295 CNS
  TGI: > 100 µM
IGROV1 ovarian
  TGI: > 100 µM
SNB-75 CNS
  TGI: > 100 µM
OVCAR-8 ovarian
  TGI: > 100 µM
OVCAR-4 ovarian
  TGI: > 100 µM
U251 CNS
  TGI: 63.7 µM
NCI-H23 lung
  TGI: > 100 µM
HOP-92 NSCLC
  TGI: > 100 µM
SK-OV-3 ovarian
  TGI: > 100 µM
MDA-MB-231 breast
  TGI: > 100 µM
SN12C renal
  TGI: > 100 µM
LOX IMVI melanoma
  TGI: 38.5 µM
SK-MEL-2 melanoma
  TGI: > 100 µM
OVCAR-5 ovarian
  TGI: > 100 µM
786-0 renal
  TGI: 47 µM
TK-10 renal
  TGI: > 100 µM
CAKI-1 renal
  TGI: 31.3 µM
MDA-N
  TGI: > 100 µM
NCI-H226 lung
  TGI: > 100 µM
SK-MEL-28 melanoma
  TGI: > 100 µM
UO-31 renal
  TGI: > 100 µM
ACHN renal
  TGI: > 100 µM
PC-3 prostate
  TGI: > 100 µM
MDA-MB-435
  TGI: > 100 µM
NCI/ADR-RES ovarian
  TGI: > 100 µM
SW-620 colon
  TGI: > 100 µM
RXF 393 renal
  TGI: > 100 µM
HL-60(TB) leukemia
  TGI: > 100 µM
HOP-62 NSCLC
  TGI: 78 µM
CCRF-CEM leukemia
  TGI: 43 µM
OVCAR-3 ovarian
  TGI: 44.9 µM
A498 renal
  TGI: > 100 µM
SF-539 CNS
  TGI: > 100 µM
COLO 205 colon
  TGI: > 100 µM
UACC-257 melanoma
  TGI: > 100 µM
BT-549 breast
  TGI: > 100 µM
M14 melanoma
  TGI: > 100 µM
KM12 colon
  TGI: > 100 µM
NCI-H460 lung
  TGI: > 100 µM
MCF7 breast
  TGI: 38.3 µM
EKVX NSCLC
  TGI: > 100 µM
K-562 leukemia
  TGI: > 100 µM
MOLT-4 leukemia
  TGI: > 100 µM
HCT-116 colon
  TGI: 41.9 µM
DU-145 prostate
  TGI: > 100 µM
A549 NSCLC
  TGI: > 100 µM
SK-MEL-5 melanoma
  TGI: > 100 µM
HT29 colon
  TGI: 90.8 µM
